Experimental findings from ChEMBL document CHEMBL1153501, “3,4-Disubstituted benzofuran P1' MMP-13 inhibitors: optimization of selectivity and reduction of protein binding” (Bioorg Med Chem Lett, 2009) are described below.

Data set [1] in a line: Selectivity ratio of IC50 for MMP2 to IC50 for MMP13.
The target of the next data set is Collagenase 3 (Homo sapiens, UniProt P45452). Kind of data set: Inhibition of MMP13.
The target of data set [2] is 72 kDa type IV collagenase (Homo sapiens, UniProt P08253). Briefly: Inhibition of MMP2.
72 kDa type IV collagenase, sequence (P08253 whole entry): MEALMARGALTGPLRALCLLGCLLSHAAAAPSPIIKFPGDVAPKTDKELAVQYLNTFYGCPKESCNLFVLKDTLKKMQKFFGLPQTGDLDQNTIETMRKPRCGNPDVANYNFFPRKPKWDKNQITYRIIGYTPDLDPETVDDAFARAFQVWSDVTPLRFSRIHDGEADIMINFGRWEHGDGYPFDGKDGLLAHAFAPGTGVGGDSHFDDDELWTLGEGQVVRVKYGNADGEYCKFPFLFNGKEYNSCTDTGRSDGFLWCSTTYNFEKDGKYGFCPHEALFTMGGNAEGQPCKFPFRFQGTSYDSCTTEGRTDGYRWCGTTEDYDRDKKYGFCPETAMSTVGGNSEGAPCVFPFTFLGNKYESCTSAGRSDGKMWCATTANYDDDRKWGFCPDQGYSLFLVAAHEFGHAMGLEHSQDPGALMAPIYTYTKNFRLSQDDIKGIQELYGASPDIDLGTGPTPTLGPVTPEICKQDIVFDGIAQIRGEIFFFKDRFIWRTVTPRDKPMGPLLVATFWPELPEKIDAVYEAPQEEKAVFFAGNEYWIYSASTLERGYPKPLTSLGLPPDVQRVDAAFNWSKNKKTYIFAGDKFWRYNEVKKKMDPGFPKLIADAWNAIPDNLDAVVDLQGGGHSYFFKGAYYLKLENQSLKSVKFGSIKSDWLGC
Data set [3] addresses Matrix metalloproteinase-9 (Homo sapiens, UniProt P14780). Kind of data set: Inhibition of MMP9.
A further data set addresses Interstitial collagenase (Homo sapiens, UniProt P03956). Briefly: Inhibition of MMP1.
The target of data set [4] is Matrix metalloproteinase-14 (Homo sapiens, UniProt P50281). Kind of data set: Inhibition of MMP14.
Data set [5] has as its target T1, A disintegrin and metalloproteinase with thrombospondin motifs 4 (Homo sapiens, UniProt O75173).
T1 sequence (O75173 whole entry): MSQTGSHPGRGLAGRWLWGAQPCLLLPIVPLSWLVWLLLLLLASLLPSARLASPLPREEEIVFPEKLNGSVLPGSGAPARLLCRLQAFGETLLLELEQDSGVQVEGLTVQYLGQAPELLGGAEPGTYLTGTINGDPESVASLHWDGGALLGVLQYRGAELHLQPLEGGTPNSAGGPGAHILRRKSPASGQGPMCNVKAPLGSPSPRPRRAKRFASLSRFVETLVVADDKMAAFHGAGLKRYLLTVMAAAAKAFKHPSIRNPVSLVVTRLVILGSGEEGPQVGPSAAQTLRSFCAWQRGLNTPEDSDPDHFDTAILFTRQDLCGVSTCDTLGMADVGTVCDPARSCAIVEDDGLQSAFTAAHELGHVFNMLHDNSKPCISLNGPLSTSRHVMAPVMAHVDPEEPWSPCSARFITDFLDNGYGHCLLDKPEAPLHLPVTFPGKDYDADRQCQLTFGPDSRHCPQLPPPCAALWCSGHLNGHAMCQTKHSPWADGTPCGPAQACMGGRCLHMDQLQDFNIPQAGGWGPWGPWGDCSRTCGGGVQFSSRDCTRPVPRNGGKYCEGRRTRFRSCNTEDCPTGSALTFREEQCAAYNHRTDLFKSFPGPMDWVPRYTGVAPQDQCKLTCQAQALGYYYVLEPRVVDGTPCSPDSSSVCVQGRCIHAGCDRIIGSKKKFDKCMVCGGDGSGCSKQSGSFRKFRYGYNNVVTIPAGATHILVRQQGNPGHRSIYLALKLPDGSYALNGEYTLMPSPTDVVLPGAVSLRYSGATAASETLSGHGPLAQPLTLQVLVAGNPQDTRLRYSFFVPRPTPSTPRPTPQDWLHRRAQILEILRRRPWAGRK
Briefly: Inhibition of aggrecanase-1.

The target of data set [6] is Collagenase 3 (Bos taurus) (UniProt O77656). Briefly: Inhibition of IL1-stimulated MMP13-mediated bovine articular cartilage collagen degradation assessed as hydroxyproline content at 1 uM after 17 days.
The target is the same in data set [7]. Briefly: Inhibition of IL1-stimulated MMP13-mediated bovine articular cartilage collagen degradation assessed as hydroxyproline content at 0.1 uM after 17 days.
Data set [8] has the same target. Briefly: Inhibition of IL1-stimulated MMP13-mediated bovine articular cartilage collagen degradation assessed as hydroxyproline content at 0.01 uM after 17 days.
A further data set concerns the target albumin (Oryctolagus cuniculus, UniProt P49065). Briefly: Protein binding in rabbit serum albumin by equilibrium dialysis assay. In kind it is ADME. To be noted: read-out: PB.

Matrix metalloproteinase-9, sequence (P14780 whole entry): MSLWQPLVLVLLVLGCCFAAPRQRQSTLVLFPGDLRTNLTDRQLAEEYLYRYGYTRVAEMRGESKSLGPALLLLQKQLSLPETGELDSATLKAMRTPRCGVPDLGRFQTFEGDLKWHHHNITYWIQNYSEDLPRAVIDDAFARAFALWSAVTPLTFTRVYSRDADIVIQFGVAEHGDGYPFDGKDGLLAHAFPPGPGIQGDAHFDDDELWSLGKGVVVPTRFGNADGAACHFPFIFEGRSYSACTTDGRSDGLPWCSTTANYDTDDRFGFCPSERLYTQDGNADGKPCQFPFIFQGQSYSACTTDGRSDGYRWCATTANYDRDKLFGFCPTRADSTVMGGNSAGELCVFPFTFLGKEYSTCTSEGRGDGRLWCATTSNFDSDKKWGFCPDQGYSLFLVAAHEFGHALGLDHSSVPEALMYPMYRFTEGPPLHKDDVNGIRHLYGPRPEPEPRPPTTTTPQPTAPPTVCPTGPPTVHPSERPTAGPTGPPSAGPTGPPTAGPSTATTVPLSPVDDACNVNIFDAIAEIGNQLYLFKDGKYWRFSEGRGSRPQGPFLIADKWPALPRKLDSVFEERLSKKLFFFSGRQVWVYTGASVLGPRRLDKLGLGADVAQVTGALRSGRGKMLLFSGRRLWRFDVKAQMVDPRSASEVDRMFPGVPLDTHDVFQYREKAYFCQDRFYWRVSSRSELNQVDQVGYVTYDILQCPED
Interstitial collagenase, sequence (P03956 whole entry, looked up): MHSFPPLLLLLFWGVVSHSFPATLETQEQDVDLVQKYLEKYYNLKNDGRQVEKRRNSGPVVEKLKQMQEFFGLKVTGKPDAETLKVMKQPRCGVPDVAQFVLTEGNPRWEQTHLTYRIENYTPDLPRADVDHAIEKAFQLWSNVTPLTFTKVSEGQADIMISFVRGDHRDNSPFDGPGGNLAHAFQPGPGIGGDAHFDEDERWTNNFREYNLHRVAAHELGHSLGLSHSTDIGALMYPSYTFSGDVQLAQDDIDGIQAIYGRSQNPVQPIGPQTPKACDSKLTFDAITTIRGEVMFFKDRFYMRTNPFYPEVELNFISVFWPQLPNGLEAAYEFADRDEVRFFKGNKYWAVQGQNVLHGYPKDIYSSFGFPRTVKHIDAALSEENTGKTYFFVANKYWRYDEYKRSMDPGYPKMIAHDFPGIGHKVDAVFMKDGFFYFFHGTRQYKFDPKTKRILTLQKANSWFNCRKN
albumin, sequence (P49065 whole entry): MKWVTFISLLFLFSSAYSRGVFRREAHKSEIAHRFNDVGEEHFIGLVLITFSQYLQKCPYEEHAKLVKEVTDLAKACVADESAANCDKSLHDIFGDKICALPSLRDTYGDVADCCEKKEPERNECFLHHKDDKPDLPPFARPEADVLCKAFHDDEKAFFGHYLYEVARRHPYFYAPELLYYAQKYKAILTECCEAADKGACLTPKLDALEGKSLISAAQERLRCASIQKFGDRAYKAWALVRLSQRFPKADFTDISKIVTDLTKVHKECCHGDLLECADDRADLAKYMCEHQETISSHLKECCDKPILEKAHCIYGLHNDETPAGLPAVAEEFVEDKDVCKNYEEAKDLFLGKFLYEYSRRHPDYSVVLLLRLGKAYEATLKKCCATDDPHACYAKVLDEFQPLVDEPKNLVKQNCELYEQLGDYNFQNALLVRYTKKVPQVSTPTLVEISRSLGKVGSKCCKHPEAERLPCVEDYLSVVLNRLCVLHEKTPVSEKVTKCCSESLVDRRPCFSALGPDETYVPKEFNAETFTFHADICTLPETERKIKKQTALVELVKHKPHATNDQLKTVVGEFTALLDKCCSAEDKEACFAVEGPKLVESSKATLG

With `Cc1c(C(=O)Nc2ccc(-c3ccc(S(=O)(=O)N[C@H](C(=O)O)C(C)C)cc3)cc2)oc2cccc(Oc3ccccc3)c12`, the Ratio IC50 in [1] amounted to 263.
Turning to `Cc1c(C(=O)Nc2ccc(-c3ccc(S(=O)(=O)N[C@H](C(=O)O)C(C)C)cc3)cc2)oc2cccc(-c3ccccc3)c12`, the Ratio IC50 in [1] came out at 243.
On the same count and under the same terms, under `Cc1cccc2oc(C(=O)Nc3ccc(-c4ccc(S(=O)(=O)N[C@H](C(=O)O)C(C)C)cc4)cc3)c(C)c12` stands 287; under `CNc1cccc2oc(C(=O)Nc3ccc(-c4ccc(S(=O)(=O)N[C@H](C(=O)O)C(C)C)cc4)cc3)c(C)c12`, 108.
In the case of `CCc1cccc2oc(C(=O)Nc3ccc(-c4ccc(S(=O)(=O)N[C@H](C(=O)O)C(C)C)cc4)cc3)c(C)c12`, the Ratio IC50 in [1] worked out at 613.
`Cc1c(C(=O)Nc2ccc(-c3ccc(S(=O)(=O)N[C@H](C(=O)O)C(C)C)cc3)cc2)oc2cccc(NS(C)(=O)=O)c12`: the IC50 (usually the point on the concentration scale where inhibition reaches its midpoint) on Collagenase 3 is 13 nM; in data set [2], 2.15 µM; in [3], above 10 µM; against Interstitial collagenase, 12 µM; in data set [4] it was 11.2 µM; in [5] it was 2200 nM. Moreover, in [1], the Ratio IC50 stood at 165. In addition, the values for the inhibition in data set [6], in data set [7] and in data set [8] were 96%, 69% and 51%, respectively.
On to `Cc1c(C(=O)Nc2ccc(-c3ccc(S(=O)(=O)N[C@H](C(=O)O)C(C)C)cc3)cc2)oc2cccc(O)c12`, for which the Ratio IC50 in [1] came out at 63.
For the compound `COC(=O)C(C)(C)Oc1cccc2oc(C(=O)Nc3ccc(-c4ccc(S(=O)(=O)N[C@H](C(=O)O)C(C)C)cc4)cc3)c(C)c12`, the Ratio IC50 in data set [1] amounted to 248.
On to `Cc1c(C(=O)Nc2ccc(-c3ccc(S(=O)(=O)N[C@H](C(=O)O)C(C)C)cc3)cc2)oc2cccc(C#N)c12`, for which the Ratio IC50 in data set [1] is 157. In data set [3], this compound had an IC50 above 10 µM. Further, the inhibition – broadly, the change of the read-out against control, counted positive when it falls – in data set [6] was found to be 100%; in data set [7], 87%; in data set [8] it was 23%.
Take `Cc1c(C(=O)Nc2ccc(-c3ccc(S(=O)(=O)N[C@H](C(=O)O)C(C)C)cc3)cc2)oc2cccc(CCCO)c12`: in data set [1], the Ratio IC50 came out at 621.
The same measure, in the same setting: under `COCCCc1cccc2oc(C(=O)Nc3ccc(-c4ccc(S(=O)(=O)N[C@H](C(=O)O)C(C)C)cc4)cc3)c(C)c12` stands 364.
The same measure, in the same setting: as for `Cc1c(C(=O)Nc2ccc(-c3ccc(S(=O)(=O)N[C@H](C(=O)O)C(C)C)cc3)cc2)oc2cccc(N)c12`, the figure is 75.
The same measure, in the same setting: as for `Cc1c(C(=O)Nc2ccc(-c3ccc(S(=O)(=O)N[C@H](C(=O)O)C(C)C)cc3)cc2)oc2cccc(N(C)C)c12`, the figure is 786; as for `CC#Cc1cccc2oc(C(=O)Nc3ccc(-c4ccc(S(=O)(=O)N[C@H](C(=O)O)C(C)C)cc4)cc3)c(C)c12`, 1580.
With `Cc1c(C(=O)Nc2ccc(-c3ccc(S(=O)(=O)N[C@H](C(=O)O)C(C)C)cc3)cc2)oc2cccc(N3CCOCC3)c12`, in data set [1], the Ratio IC50 worked out at 51.
Consider `Cc1c(C(=O)Nc2ccc(-c3ccc(S(=O)(=O)N[C@H](C(=O)O)C(C)C)cc3)nc2)oc2cccc(NS(C)(=O)=O)c12`, for which the IC50 at Collagenase 3 worked out at 40 nM; in data set [2], 7.5 µM. Also, the Ratio IC50 in data set [1] was determined as 188.
Consider `COc1c(Br)ccc2oc(C(=O)Nc3ccc(-c4ccc(S(=O)(=O)N[C@H](C(=O)O)C(C)C)cc4)cc3)c(C)c12`, for which, in [1], the Ratio IC50 worked out at 739. On albumin, the fraction unbound was below 0.01.
In the case of `Cc1c(C(=O)Nc2ccc(-c3ccc(S(=O)(=O)N[C@H](C(=O)O)C(C)C)cc3)cc2)oc2cccc(-c3ccoc3)c12`, the Ratio IC50 in data set [1] came to 322.
Still for that read-out and setting: as for `C#Cc1cccc2oc(C(=O)Nc3ccc(-c4ccc(S(=O)(=O)N[C@H](C(=O)O)C(C)C)cc4)cc3)c(C)c12`, the figure is 98.
Same read-out and setting: under `CC(=O)Nc1cccc2oc(C(=O)Nc3ccc(-c4ccc(S(=O)(=O)N[C@H](C(=O)O)C(C)C)cc4)cc3)c(C)c12` stands 152; under `COc1cccc2oc(C(=O)Nc3ccc(-c4ccc(S(=O)(=O)N[C@H](C(=O)O)C(C)C)cc4)cc3)c(C)c12`, 110; under `CCOc1cccc2oc(C(=O)Nc3ccc(-c4ccc(S(=O)(=O)N[C@H](C(=O)O)C(C)C)cc4)cc3)c(C)c12`, 485.
